{
  "source": "patent US20240238263A1",
  "about": "“USE OF PYRIDONE DERIVATIVE CONTAINING HETEROATOM CYCLOBUTANE SUBSTITUENT” (GUANGZHOU JOYO PHARMATECH CO., LTD, priority 2021, published 2024)",
  "test_system": "dorsal skin full-thickness excisional wound in STZ-induced diabetic rats",
  "assay": "Dorsal skin full-thickness excisional wound model in STZ-induced diabetic rats, wound closure",
  "type": "in vivo, Wistar rats",
  "experimental": "In this study, 50 STZ-diabetic rats were used to simulate Type 1 diabetes, with an additional 8 normal rats serving as the control group (normal blank gel control group (without STZ)). The method for modeling the STZ-diabetic rat is as follows: Male Wistar rats were weighed and then intraperitoneally injected with Streptozotocin (STZ, freshly prepared, dissolved in 0.1 M citrate buffer (pH 4.5)) at a dosage of 80 mg/kg. STZ was intraperitoneally injected twice in total, with a 5-day interval between injections. Three days after the second STZ injection, rats with fasting blood glucose levels greater than 250 mg/dl were defined as diabetic model rats. Studies on skin wound healing could be conducted from 1 to 8 weeks after the successful establishment of the diabetic rat model. • 2.\nIn diabetic model rats, the dorsal skin was marked with a stamp, and full-thickness excision was performed to create a standardized wound area. The day of the full-thickness skin excision surgery was designated as Day 1 of the experiment. The specified surgical procedure was as follows: • 1) Prior to surgery, animals were anesthetized with 2-5% isoflurane. The back was shaved and prepared, and the surgical area was disinfected with iodophor, followed by de-iodination with 75% alcohol. • 2) All animals were marked on the skin of their backs using a stamp with a circular pattern. A circular full-thickness skin excision was performed along the midline of the rat's back, extending down to the fascial layer. […] The surgical site was essentially consistent for each animal; • 3) Post-surgery, every 8-12 hours, 8 mg/kg of bupivacaine (diluted to 0.25% with physiological saline) was injected subcutaneously at the wound site. All animals were closely monitored until they regained consciousness. Animals were monitored daily, and if symptoms of pain persisted, they would continue to receive pain medication. • 4. Drug administration:\nAll experimental groups were topically administered. Before administering the medication, wounds were rinsed with physiological saline and any residual moisture was absorbed with a sterile cotton swab. Then, the medication was applied. For the GeneTime group, the solution was evenly applied to the wound and surrounding skin, with the dressing changed twice a day. For the other groups, the gel samples were applied from the periphery toward the center, focusing first on the edges of the lesion before covering inward, with the dressing changed twice a day. Medication was applied immediately after the wound model was created, and each group was continuously administered for 18 days. For specific administration information, see Table 2. • 5. Efficacy assessment • 1) Blood glucose monitoring: Blood samples were obtained from all animals via tail vein sampling, and fasting blood glucose levels were measured on days 0/9/18 using a glucometer. • 2) Evaluation of wound closure:\nAfter anesthetizing the rats with isoflurane, a ruler was placed near the wound as a reference scale. Using a digital camera, photos of the wound on the rat's back were taken on days 1, 4, 8, 11, 14, and 18, maintaining a constant focus and pixel condition. The obtained images were processed by software to measure the wound area. • 6. Statistical analysis\nExperimental data were expressed as the mean±standard error of the mean (mean±S.E.M.). Statistical analyses were conducted using appropriate methods in software such as Graphpad Prism or SPSS. A p-value of less than 0.05 is considered to indicate a significant difference. • 7. Results • 1) Fasting blood glucose\nRemaining Open Wound Area %=Open Wound Area (O)/Initial Wound Area (I)*100%",
  "data": [
    {"smiles": "CC1(c2ccc(=O)n(-c3ccsc3)c2)COC1", "note": "[compound I]", "values": [
      {"measurement": "Remaining open wound area", "setting": "0.3% compound I gel, 50 mg topical twice daily, Day 1 (day of surgery)", "value": "100% ±"},
      {"measurement": "Remaining open wound area", "setting": "0.3% compound I gel, 50 mg topical twice daily, Day 4", "value": "94.82% ±"},
      {"measurement": "Remaining open wound area", "setting": "0.3% compound I gel, 50 mg topical twice daily, Day 8", "value": "54% ±"},
      {"measurement": "Remaining open wound area", "setting": "0.3% compound I gel, 50 mg topical twice daily, Day 11", "value": "24.5% ±"},
      {"measurement": "Remaining open wound area", "setting": "0.3% compound I gel, 50 mg topical twice daily, Day 14", "value": "7.75% ±"},
      {"measurement": "Remaining open wound area", "setting": "0.3% compound I gel, 50 mg topical twice daily, Day 18", "value": "1.22% ±"},
      {"measurement": "Remaining open wound area", "setting": "1% compound I gel, topical twice daily, Day 1 (day of surgery)", "value": "100% ±"},
      {"measurement": "Remaining open wound area", "setting": "1% compound I gel, topical twice daily, Day 4", "value": "94.25% ±"},
      {"measurement": "Remaining open wound area", "setting": "1% compound I gel, topical twice daily, Day 8", "value": "55.4% ±"},
      {"measurement": "Remaining open wound area", "setting": "1% compound I gel, topical twice daily, Day 14", "value": "5.47% ±"},
      {"measurement": "Remaining open wound area", "setting": "1% compound I gel, topical twice daily, Day 18", "value": "0.78% ±"},
      {"measurement": "Change of remaining open wound area % vs model blank gel control group", "setting": "1% compound I gel, after 14 days of topical administration, no statistical difference", "value": "tended to decrease"},
      {"measurement": "Change of remaining open wound area % vs model blank gel control group", "setting": "1% compound I gel, day 11 after administration, P<0.01", "value": "significantly reduced"},
      {"measurement": "Remaining open wound area", "setting": "3% compound I gel, topical twice daily, Day 1 (day of surgery)", "value": "100% ±"},
      {"measurement": "Remaining open wound area", "setting": "3% compound I gel, topical twice daily, Day 4", "value": "93.96% ±"},
      {"measurement": "Remaining open wound area", "setting": "3% compound I gel, topical twice daily, Day 8", "value": "56.92% ±"},
      {"measurement": "Remaining open wound area", "setting": "3% compound I gel, topical twice daily, Day 14", "value": "6% ±"},
      {"measurement": "Remaining open wound area", "setting": "3% compound I gel, topical twice daily, Day 18", "value": "2.01% ±"},
      {"measurement": "Change of remaining open wound area % vs model blank gel control group", "setting": "3% compound I gel, after 14 days of topical administration, no statistical difference", "value": "tended to decrease"},
      {"measurement": "Change of remaining open wound area % vs model blank gel control group", "setting": "3% compound I gel, day 11 after administration, P<0.05", "value": "significantly reduced"}
    ]}
  ]
}
